Test results taken from ChEMBL document CHEMBL1201862, “PubChem BioAssay data set” (2004).
The source made the active and inactive calls.

Legend:
[1] = NIH-3T3 fibroblast cytotoxicity, dose response, cytotoxicity control, cell-based, fluorescence, Alamar Blue, secondary assay (AID 2327); format: functional;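 note: NIH-3T3 mouse fibroblasts cultured with fluconazole at 8 µg/mL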
[2] = C. albicans growth with fluconazole, confirmation, fluorescence, retest (AID 2467); format: functional, cell-based
[3] = target: ATP-dependent molecular chaperone HSP82 (Candida albicans (strain WO-1) (Yeast), UniProt C4YTQ8); test: loss of DOC-induced GRE-beta-galactosidase reporter signal, dose response, Hsp90 inhibitor project, S. cerevisiae, luminescence (AID 2400); format: functional, cell-based;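 note: beta-galactosidase luminescence from glucocorticoid response element reporter as proxy for Hsp90 function; inhibitor potency where signal loss means Hsp90 inhibition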
ATP-dependent molecular chaperone HSP82, sequence (C4YTQ8 whole entry): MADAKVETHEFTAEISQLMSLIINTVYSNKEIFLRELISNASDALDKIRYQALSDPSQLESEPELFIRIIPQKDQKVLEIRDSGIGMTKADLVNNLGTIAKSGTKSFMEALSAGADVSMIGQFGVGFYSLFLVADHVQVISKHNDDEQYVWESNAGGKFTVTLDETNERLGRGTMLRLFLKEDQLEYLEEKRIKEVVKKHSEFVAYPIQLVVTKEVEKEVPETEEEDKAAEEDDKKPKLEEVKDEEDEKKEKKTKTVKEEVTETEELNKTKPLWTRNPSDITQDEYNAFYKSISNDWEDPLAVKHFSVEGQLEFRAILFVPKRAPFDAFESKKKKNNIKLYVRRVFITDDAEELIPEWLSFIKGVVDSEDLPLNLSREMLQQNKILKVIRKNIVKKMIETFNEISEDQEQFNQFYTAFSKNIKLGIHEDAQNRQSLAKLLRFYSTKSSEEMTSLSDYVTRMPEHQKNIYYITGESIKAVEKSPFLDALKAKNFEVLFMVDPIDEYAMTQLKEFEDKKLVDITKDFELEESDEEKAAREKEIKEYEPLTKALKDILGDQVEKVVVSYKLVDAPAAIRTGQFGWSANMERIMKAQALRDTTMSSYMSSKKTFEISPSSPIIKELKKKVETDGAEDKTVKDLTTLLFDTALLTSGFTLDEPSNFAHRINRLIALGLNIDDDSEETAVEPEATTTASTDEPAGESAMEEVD

[4] = target: Serine/threonine-protein phosphatase (Candida dubliniensis (strain CD36 / CBS 7987 / NCPF 3949 / NRRLY-17841) (Yeast), UniProt B9W6M3); test: calcineurin pathway inhibitors in yeast reporter, dose response, S. cerevisiae, CDRE-lacZ, luminescence, secondary (AID 2388); format: functional, cell-based;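 note: yeast reporter cells carrying a calcineurin-responsive lacZ construct stimulated with calcium chloride; luminescent beta-galactosidase reporter signal in whole cells rather than isolated phosphatase activity; potency for inhibition where a drop in reporter signal means calcineurin blockade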
Serine/threonine-protein phosphatase, sequence (B9W6M3 whole entry): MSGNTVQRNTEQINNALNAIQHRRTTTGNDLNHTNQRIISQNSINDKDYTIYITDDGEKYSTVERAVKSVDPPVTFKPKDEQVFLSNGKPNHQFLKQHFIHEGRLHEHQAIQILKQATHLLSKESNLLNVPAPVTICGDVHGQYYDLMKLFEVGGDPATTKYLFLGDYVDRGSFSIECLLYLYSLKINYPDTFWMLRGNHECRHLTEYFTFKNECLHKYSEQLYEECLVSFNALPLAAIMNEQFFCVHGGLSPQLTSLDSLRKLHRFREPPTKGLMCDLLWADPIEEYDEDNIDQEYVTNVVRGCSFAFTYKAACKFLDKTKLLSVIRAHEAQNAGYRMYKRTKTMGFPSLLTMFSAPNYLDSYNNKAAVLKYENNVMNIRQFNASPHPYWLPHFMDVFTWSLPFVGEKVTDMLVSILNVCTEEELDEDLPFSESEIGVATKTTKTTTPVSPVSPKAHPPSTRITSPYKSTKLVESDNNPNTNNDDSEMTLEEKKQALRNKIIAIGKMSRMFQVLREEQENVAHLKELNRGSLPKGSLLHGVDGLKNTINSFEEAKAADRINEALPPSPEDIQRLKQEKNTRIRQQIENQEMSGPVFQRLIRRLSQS

Escherichia coli [5] = test: microbe, parasite or virus in culture
Escherichia coli [6] = test: microbe, parasite or virus in culture; remark: listed apart in the source
[7] = target: Heat shock protein HSP 90-alpha (Homo sapiens, UniProt P07900); format: functional, organism-based
cells = format: functional
[8] = Vero E6 cell cytotoxicity, dose response, cytotoxicity control for non-replicating M. tuberculosis project, secondary assay (AID 492998); format: functional, VeroE6; settings: Vero C1008
Streptococcus = test: Group A Streptococcus viability loss, dose response, counter-screen for streptokinase expression inhibitor project, luminescence, BacTiterGlo (AID 1915); format: functional, organism-based;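 note: potency for reduction of bacterial viability or growth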
[9] = tested on: Streptococcus sp. 'group A'; test: growth inhibition of control SK(-) GAS strain, dose response, counter-screen for streptokinase expression inhibitor project, luminescence, kanamycin, BacTiterGlo, confirmation (AID 1900); format: functional, organism-based
[10] = HepG2 cell cytotoxicity, dose response, cytotoxicity control for non-replicating M. tuberculosis project (AID 489018); format: functional; settings: Mycobacterium tuberculosis
[11] = human group III sPLA2 inhibitors, dose response, biochemical, QFRET, IC50 (AID 743457);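 note: green fluorescence rise as the enzyme cleaves BODIPY PC-A2 in liposomes; potency for inhibition of the enzyme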
Vero [12] = test: cells; format: functional; settings: Chlorocebus sabaeus
[13] = target: T1, Short transient receptor potential channel 4 (Mus musculus, UniProt Q9QUQ5); test: mouse TRPC4 channel activators, dose response, cell-based, HEK293 TRPC4/mu-opioid, Fluo-4 calcium (AID 434937); format: functional
T1 sequence (Q9QUQ5 whole entry): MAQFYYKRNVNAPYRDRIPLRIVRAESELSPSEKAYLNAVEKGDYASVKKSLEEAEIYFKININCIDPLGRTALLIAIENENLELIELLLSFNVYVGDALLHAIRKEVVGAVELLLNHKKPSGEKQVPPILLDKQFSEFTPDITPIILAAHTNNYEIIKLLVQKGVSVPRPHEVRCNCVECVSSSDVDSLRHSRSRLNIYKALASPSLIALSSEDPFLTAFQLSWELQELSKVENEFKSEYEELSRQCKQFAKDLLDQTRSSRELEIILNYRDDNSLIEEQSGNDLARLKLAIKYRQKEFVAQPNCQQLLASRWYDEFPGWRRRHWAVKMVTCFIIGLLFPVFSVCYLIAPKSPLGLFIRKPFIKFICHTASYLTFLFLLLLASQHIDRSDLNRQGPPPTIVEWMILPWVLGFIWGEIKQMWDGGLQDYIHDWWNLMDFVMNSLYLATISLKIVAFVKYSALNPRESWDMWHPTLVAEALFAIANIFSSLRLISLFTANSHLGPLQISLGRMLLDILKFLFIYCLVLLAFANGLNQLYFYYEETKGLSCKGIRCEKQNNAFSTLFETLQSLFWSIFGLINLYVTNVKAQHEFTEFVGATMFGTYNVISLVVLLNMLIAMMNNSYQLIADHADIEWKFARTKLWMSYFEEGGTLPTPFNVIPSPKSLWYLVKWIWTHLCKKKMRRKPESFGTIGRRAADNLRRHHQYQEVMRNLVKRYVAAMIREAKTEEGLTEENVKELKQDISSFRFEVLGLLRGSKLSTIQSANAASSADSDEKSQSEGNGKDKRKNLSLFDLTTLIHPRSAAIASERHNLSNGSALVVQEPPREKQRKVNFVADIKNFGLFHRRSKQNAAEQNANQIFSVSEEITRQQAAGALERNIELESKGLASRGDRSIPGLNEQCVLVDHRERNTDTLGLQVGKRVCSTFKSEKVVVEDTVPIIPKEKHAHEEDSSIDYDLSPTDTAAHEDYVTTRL

[14] = THP-1 cell cytotoxicity, dose response, cytotoxicity control for non-replicating M. tuberculosis project (AID 489025); format: functional
Vero [15] = test: cells; format: functional, cell-based; settings: Chlorocebus sabaeus
[16] = target: T2, Ubiquitin-conjugating enzyme E2 N (Homo sapiens, UniProt P61088); format: functional
T2 sequence (P61088 whole entry): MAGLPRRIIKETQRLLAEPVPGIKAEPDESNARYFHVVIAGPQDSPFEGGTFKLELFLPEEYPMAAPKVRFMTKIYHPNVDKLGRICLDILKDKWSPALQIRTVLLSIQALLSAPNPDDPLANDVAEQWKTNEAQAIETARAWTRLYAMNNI

[17] = target: T3, Small ubiquitin-related modifier 1 (Homo sapiens, UniProt P63165); test: inhibitors of SUMO1 peptide binding, dose response, biochemical, fluorescence polarization, uHTS hits (AID 624382); format: functional; settings: read-out: IC50_Mean
T3 sequence (P63165 whole entry): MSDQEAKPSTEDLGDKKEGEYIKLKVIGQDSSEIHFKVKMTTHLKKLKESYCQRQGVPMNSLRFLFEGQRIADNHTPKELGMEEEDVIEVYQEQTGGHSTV

[18] = target: T3, Small ubiquitin-related modifier 1; test: inhibitors of SUMO1 partner interactions, dose response, biochemical, FRET (AID 624383); format: functional; settings: read-out: IC50_Mean
[19] = target: T4, Rac GTPase-activating protein 1 (Homo sapiens, UniProt Q9H0H5); test: MgcRacGAP GTPase-activating activity inhibitors, confirmation, biochemical, ADP Hunter fluorescence, primary and confirmatory (AID 624330); format: functional
T4 sequence (Q9H0H5 whole entry): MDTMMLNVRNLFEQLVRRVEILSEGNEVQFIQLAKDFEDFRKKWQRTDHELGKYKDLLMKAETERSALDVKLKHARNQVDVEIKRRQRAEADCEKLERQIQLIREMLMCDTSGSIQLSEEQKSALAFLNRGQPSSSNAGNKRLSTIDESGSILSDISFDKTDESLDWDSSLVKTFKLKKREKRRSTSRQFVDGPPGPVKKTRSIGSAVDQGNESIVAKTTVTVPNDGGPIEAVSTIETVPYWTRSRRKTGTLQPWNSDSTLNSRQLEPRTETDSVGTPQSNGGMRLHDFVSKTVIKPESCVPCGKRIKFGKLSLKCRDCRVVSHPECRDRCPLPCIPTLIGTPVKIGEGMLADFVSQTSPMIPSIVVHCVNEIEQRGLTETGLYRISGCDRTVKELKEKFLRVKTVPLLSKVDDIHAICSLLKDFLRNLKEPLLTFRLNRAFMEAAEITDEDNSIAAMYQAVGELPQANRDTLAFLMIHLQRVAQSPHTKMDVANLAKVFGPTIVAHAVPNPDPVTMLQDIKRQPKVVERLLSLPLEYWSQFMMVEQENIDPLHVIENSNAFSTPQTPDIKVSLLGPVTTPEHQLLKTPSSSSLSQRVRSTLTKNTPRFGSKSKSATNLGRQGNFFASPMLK

Bcl-2-related protein A1 = target: T5, Bcl-2-related protein A1 (Mus musculus, UniProt Q07440); format: functional;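 note: confirmatory dose–response counterscreen on Bfl-1, used to check hits from a UBC13 polyubiquitin inhibitor campaign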
T5 sequence (Q07440 whole entry): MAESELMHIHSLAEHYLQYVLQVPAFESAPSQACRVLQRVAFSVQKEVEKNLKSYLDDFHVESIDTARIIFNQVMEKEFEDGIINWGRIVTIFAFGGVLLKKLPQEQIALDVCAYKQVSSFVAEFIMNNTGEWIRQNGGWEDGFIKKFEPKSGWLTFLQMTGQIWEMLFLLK

[20] = target: T2, Ubiquitin-conjugating enzyme E2 N; format: functional; remark: listed apart in the source
[21] = target: T6, Calpain-2 catalytic subunit (Sus scrofa, UniProt P43367); test: pig calpain II inhibitor potency, dose response, biochemical, fluorogenic peptide substrate (AID 1420); format: functional
T6 sequence (P43367 whole entry): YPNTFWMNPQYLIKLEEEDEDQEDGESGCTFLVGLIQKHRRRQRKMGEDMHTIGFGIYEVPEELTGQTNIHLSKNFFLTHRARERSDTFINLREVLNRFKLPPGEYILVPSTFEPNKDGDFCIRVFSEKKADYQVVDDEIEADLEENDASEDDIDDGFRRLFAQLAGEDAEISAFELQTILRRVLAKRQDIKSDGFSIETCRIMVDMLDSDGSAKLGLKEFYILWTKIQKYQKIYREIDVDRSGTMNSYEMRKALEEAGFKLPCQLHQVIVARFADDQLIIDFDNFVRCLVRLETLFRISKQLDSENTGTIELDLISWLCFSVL

Phospholipase A2 = Phospholipase A2 (Homo sapiens, UniProt P04054); format: functional;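 note: confirmatory dose-response counterscreen on phospholipase A2, testing hits that came from an ultra-high-throughput screen for ATG4B inhibitors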
Phospholipase A2, sequence (P04054 whole entry): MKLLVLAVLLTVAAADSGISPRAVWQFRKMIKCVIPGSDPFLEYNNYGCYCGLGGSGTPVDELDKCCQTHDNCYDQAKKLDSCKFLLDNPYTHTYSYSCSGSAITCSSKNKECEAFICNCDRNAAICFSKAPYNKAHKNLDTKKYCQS

Cysteine protease ATG4B = Cysteine protease ATG4B (Homo sapiens, UniProt Q9Y4P1); format: functional;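 note: Fluorescence-based dose-response confirmation assay measuring inhibition of ATG4B activity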
Cysteine protease ATG4B, sequence (Q9Y4P1 whole entry): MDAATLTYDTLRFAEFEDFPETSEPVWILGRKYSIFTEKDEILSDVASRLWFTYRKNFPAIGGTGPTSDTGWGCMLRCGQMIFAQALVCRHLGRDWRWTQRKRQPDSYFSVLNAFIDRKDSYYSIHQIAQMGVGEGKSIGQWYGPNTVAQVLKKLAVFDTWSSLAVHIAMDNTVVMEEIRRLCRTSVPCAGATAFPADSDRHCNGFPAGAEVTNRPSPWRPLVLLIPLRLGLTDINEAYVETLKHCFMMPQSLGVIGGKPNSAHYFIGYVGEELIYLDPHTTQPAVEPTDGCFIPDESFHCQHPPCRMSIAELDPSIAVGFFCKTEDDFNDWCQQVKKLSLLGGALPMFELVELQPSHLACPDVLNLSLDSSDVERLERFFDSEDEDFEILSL

A-375 [22] = test: MITF: Counter assay: A375 proliferation Measured in Cell-Based System Using Plate Reader - 2084-03_Inhibitor_Dose_DryPowder_Activity. [Related pubchem assays (depositor defined):AID488944]; format: functional; settings: Homo sapiens
A-375 [23] = test: A375 melanoma cell viability reduction, dose response, counter-screen for MITF modulator project, cherry-pick samples, set 2 (AID 540335); format: functional, cell-based; settings: Homo sapiens
P388 = test: cells; format: functional; settings: Mus musculus
SN12K1 = test: cells; format: functional; settings: Homo sapiens
[24] = target: T7, Microphthalmia-associated transcription factor (Homo sapiens, UniProt O75030); test: TRPM1 promoter luciferase signal decrease, dose response, MITF inhibitor project, cell-based, SK-MEL-5, cherry-picked, set 3 (AID 493073); format: functional
T7 sequence (O75030 whole entry): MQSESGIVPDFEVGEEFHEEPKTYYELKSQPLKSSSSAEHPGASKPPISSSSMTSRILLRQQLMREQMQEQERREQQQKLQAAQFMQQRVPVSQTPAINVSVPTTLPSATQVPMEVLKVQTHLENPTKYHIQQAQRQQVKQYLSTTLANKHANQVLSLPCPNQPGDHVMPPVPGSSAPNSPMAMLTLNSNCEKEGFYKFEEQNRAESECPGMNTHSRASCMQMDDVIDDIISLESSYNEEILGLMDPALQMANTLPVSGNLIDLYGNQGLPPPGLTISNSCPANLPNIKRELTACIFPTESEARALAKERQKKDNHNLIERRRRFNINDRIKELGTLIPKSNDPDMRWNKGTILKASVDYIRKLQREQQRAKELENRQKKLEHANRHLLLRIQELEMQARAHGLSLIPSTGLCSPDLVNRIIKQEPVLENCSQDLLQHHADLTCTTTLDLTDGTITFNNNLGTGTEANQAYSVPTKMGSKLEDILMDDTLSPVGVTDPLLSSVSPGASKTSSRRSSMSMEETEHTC

P388/ADR = test: cells; format: functional; settings: Mus musculus

**Q.** Which EC50 [1] does the source give for `COc1ccc(C(=O)NNC(=S)NC(=O)c2ccc(Cl)cc2)cc1` here?
**A.** > 160 µM (inactive)

**Q.** What about the EC50 [2] of the same compound?
**A.** 0.275 µM (active)

**Q.** What about the EC50 [3] of the same compound?
**A.** 13.9 µM (active)

**Q.** What about the EC50 [4] of the same compound?
**A.** > 180 µM (inactive)

**Q.** With `COc1cc(-c2noc(-c3ccccc3C(=O)NCc3ccco3)n2)cc(OC)c1OC` as the compound, how does the AC50 (Escherichia coli [5]) read?
**A.** 40.5 µM (active)

**Q.** And the AC50 (Escherichia coli [6])?
**A.** 71.1 µM (active)

**Q.** For `CC(Oc1ccc(Cl)cc1)C(=O)NNC(=S)NC(=O)c1ccco1` (stereo unspecified), which AC50 [7] is on record?
**A.** 1.41 µM (active)

**Q.** And the IC50 (cells)?
**A.** 9.22 µM (active)

**Q.** What about the CC50 [8] of the same compound?
**A.** 11.2 µM (active)

**Q.** What about the EC50 (Streptococcus) of the same compound?
**A.** 2.29 µM (active)

**Q.** What about the EC50 [9] of the same compound?
**A.** 0.571 µM (active)

**Q.** And the CC50 [10]?
**A.** > 20 µM (active)

**Q.** What about the IC50 [11] of the same compound?
**A.** 34.9 µM (inactive)

**Q.** What about the CC50 (Vero [12]) of the same compound?
**A.** > 25 µM (active)

**Q.** And the EC50 [13]?
**A.** 5.31 µM (active)

**Q.** What about the CC50 [14] of the same compound?
**A.** 13.7 µM (active)

**Q.** And the IC50 (Vero [15])?
**A.** > 25 µM (active)

**Q.** With `O=C(Nc1ccc(C2=NCCN2)cc1)c1ccc(C(=O)Nc2ccc(C3=NCCN3)cc2)c([N+](=O)[O-])c1` as the compound, how does the IC50 [16] read?
**A.** 3.11 µM (active)

**Q.** What about the IC50 [17] of the same compound?
**A.** > 66.6 µM (inactive)

**Q.** And the IC50 [18]?
**A.** 3.28 µM (active)

**Q.** What about the IC50 [19] of the same compound?
**A.** 33.1 µM (active)

**Q.** What about the IC50 (Bcl-2-related protein A1) of the same compound?
**A.** 4.88 µM (active)

**Q.** What about the AC50 (Escherichia coli [6]) of the same compound?
**A.** 243 µM (active)

**Q.** What about the IC50 [20] of the same compound?
**A.** 2.17 µM (active)

**Q.** Which results are given for `COc1cnc(SCc2c(Cl)cccc2Cl)nc1Cl`?
**A.** IC50 [21]: < 0.4 µM (not active); IC50 (Phospholipase A2): 7.65 µM (active); IC50 (Cysteine protease ATG4B): 7.76 µM (active)

**Q.** Which AC50 (A-375 [22]) does the source give for `COc1ccc(/C=C/c2cc(C(F)(F)F)on2)cc1` here?
**A.** > 35 µM (active)

**Q.** And the AC50 (A-375 [23])?
**A.** > 35 µM (active)

**Q.** With `CN(C)CC1CC/C(=C\c2ccc(O)cc2)C1=O` (stereo unspecified) as the compound, how does the AC50 [7] read?
**A.** 4.38 µM (active)

**Q.** And the GI50 (P388)?
**A.** 0.491 µM (active)

**Q.** And the AC50 (A-375 [22])?
**A.** > 35 µM (active)

**Q.** And the GI50 (SN12K1)?
**A.** 1.78 µM (inactive)

**Q.** And the AC50 [24]?
**A.** 12.9 µM (active)

**Q.** What about the GI50 (P388/ADR) of the same compound?
**A.** 1.69 µM (inactive)

**Q.** And the AC50 (A-375 [23])?
**A.** > 35 µM (active)
